In patent US20180207172A1, “TREATMENT FOR VITILIGO” (GLAXO GROUP LIMITED, priority 2015, published 2018):

Tested on: CXCL10 secretion induced by poly(I:C) in HaCaT cells
Test: poly(I:C)-induced CXCL10 secretion assay in HaCaT cells (ELISA)
Format: cell-based, Human
Conditions: poly(I:C) 20 μg/ml, 48 hours
Experimental: In another CXCL10 assay, immortalized keratinocytes (HaCaTs) cells (AddexBio #T0020001) were cultured in DMEM (Thermo Fisher #10566-016) supplemented with 10% FBS and 1% penicillin/streptomycin. 1×10^5 HaCaT cells were seeded per well of a 24-well culture dish in 400 μl culture medium. Once confluent, medium was aspirated and cells were pretreated with 200 μl of DMSO vehicle (0.1%) or 3-fold serial dilutions ([…]) of 7-(2-(methyloxy)-6-{[(4-methyl-2-pyridinyl)methyl]oxy}-phenyl)-2,3,4,5-tetrahydro-1H-3-benzazepine (Compound 1) for 30 minutes at 37° C. with 5% CO2. After pre-treatment, 200 μl of poly(I:C) at 40 μg/ml was added per well (without removal of pre-treatment medium), making the final treatment concentration 20 μg/ml. Additional compound and/or DMSO was included to maintain concentrations. All samples received 0.1% DMSO during both pre-treatment and treatment phases. Cells were returned to the incubator for 48 hours. Each condition had biological triplicates.
At 48 hours, supernatants were collected, centrifuged to pellet debris, and then re-collected. CXCL10 secreted into the supernatant was measured by the Human CXCL10/IP-10 Quantikine ELISA Kit (R&D Systems #DIP 100) according to the manufacturer's protocol. […]

COc1cccc(OCc2cc(C)ccn2)c1-c1ccc2c(c1)CCNCC2 [Compound 1, 7-(2-(methyloxy)-6-{[(4-methyl-2-pyridinyl)methyl]oxy}-phenyl)-2,3,4,5-tetrahydro-1H-3-benzazepine]
CXCL10 secretion induced by poly(I:C), percentage of maximum stimulation (vehicle = 100%) (30 min pre-treatment, supernatant ELISA, FIG. 1): dose-dependent decrease
dose concentration at which maximal inhibition of CXCL10 secretion was observed (highest concentration tested): 10 µM
